This is an account of results in US6740637B1, “Chlorophyll and bacteriochlorophyll derivatives, their preparation and pharmaceutical compositions comprising them” (priority 1998, dated 2004).

Entries after “also recorded” stand apart in the source; their conditions may differ.

For data set [1], the system named is C57Bl mice. In words: Toxicity of serine conjugates in mice in the absence of irradiation. Type of data set: in vivo, mouse. Particulars: injections of up to 40 mg/kg body weight, up to 14 days, no irradiation. The protocol:
(d) Toxicity of the Chl and Bchl-serine conjugates Chla-L-Ser-OMe and Bchla-L-Ser-OMe in C57Bl mice under normal housing conditions in the absence of irradiation was estimated by injection of the compound dissolved in 10% ethanol/PBS. Control mice were injected with the vehicle only. […] This dose of drug was thus far the highest used and LD50 vs. EC50 of treatment (margins of therapeutic index) have yet to be determined.

The subject of data set [2] is MR2 melanoma tumors. As to the kind of experiment: Photodynamic treatment of melanoma tumor implanted in CD1 nude mouse, MRI follow up. In kind it is in vivo. Here is the method:
(a) Tumor implantation: M2R cells are routinely maintained as monolayers. The cells are scraped with the aid of a rubber policeman and suspended in normal saline, 1×10^6 cells/0.1 ml are injected subcutaneously on the flank or batch of C57Bl or CD1 nude male mice. […] A similar procedure is used in nude mice in which either mouse M2R or human (FO/1, MRI/H/221, HS695T amelanotic melanoma or SK/MEL/28) melanoma tumors are implanted.

Data set [3] has as its system Staphylococcus Aureus Cowan I. In kind it is cell-based. The protocol:
Light source: All the phototoxicity assays were performed with a home-built Xenon lamp with vertical emission providing 140 mW/cm^2 at the target level, using glass or a Cr2K2O7 liquid filter transferring light at […].
Bacterial culture: Lyophilized Staphylococcus Aureus Cowan I, kindly provided by Prof. Z. Eshar, the Weizmann Institute, Israel were grown in liquid brain heart infusion (BHI) media for 18 hours at 37° C. with continuous shaking.
Phototoxicity experiments: The standard experimental design consisted of four discrete steps: (i) Pre-incubation: Fresh bacterial suspensions (200 μl) in 0.1M carbonate buffer, pH 8.6, were incubated with the test sensitizer and/or inhibitor at the indicated concentrations for 1 hour in the dark. (ii) Wash: Unbound sensitizer was removed by washing and resuspension in the same buffer (x3). (iii) Illumination: The bacterial suspensions were exposed to light (140 mW/cm^2, λ>550 nm) for 5 min. (iv) Assessment of survival: Samples of the bacterial suspensions (30 μl) were cultured in 2 ml of BHI liquid media at 37° C. (shaking) for 2 hr. Bacterial density was monitored by turbidity measurements at λ=660 nm, taking OD660=1 for 5×10^7 bacteria/ml. Each experiment consisted of one experimental and three control groups:
Experimental group: Bacteria were subjected to complete treatment (varying one experimental factor). Light control: irradiated bacteria, not treated with sensitizer. Dark control: non-irradiated bacteria, treated with sensitizer in the dark. Untreated control: values used for calculation of 100% survival.

The test system of data set [4] is cell cultures. Particulars: cited from earlier work.
The conditions of data set [5]: in vivo; cited from earlier work.
The conditions of data set [6]: cited from earlier work.

As for `CC[C@H]1c2cc3[n-]c4c(c3C)C(=O)[C@H](C(=O)OC)c4c3nc(cc4[n-]c(cc(n2)[C@@H]1C)c(C(C)=O)c4C)[C@@H](C)[C@@H]3CCC(=O)OC[C@H](N)C(=O)OC.[Mg+2]` [Bchla-L-Ser-OMe, L-seryl Methyl Ester Bacteriochlorophyllide a], the “effect on behavior and well being of mice” value in data set [1] was “no noticeable effect on the behavior and well being of the mice”. In data set [2] (50-150 μg into and around tumor, halogen light 60 min, 84 h later), the “tumor by MRI after first treatment” value is “essentially eliminated”. In addition, in data set [2] (after a second treatment (2-3 weeks later)), the “tumor recurrence by MRI after second treatment” value is listed as “no recurrence”. Further, the “tumor recurrence by MRI after first treatment” value in data set [2] (two weeks after first treatment) is reported as “small recurrence; also recorded: some recurrence”. In addition, the “concentration of maximal phototoxicity” value in data set [3] was determined as 0.5 µM. Further, the “phototoxicity LD50” value in data set [3] (as described in Example 17) was found to be 70 nM. The dark toxicity result in data set [3] (no light, up to highest tested concentration (10 μM)) is given as “no detectable dark toxicity”. Besides, the “LD50 (phototoxicity in cell cultures)” value in data set [4] is 50 nM. In data set [5], the “clearance from the animal body” value was 16 h. The water solubility result in data set [6] is “water soluble”.
